Source: patent publication US20120157401A1, “METHODS FOR TREATING NEUROFIBROMATOSIS” (PTC Therapeutics, Inc., priority 2009, published 2012)
Where two headings read alike, the source gives them in different places.

Key:
MDA MB 468 xenografts = experiment: Tumor perfusion by DCE-MRI in MDA-MB-468 xenografts; format: in vivo, athymic nude mice; conditions: 10 mg/kg oral QD
From the text: Experimental Design. Dynamic contrast-enhanced magnetic resonance imaging can be used preclinically and clinically to evaluate the anatomy of soft tissues, including the identification and accurate measurement of tumor volumes. In addition, evaluation of the intratumoral pharmacokinetics of contrast agents containing gadolinium can be used to measure vascular permeability characteristics. Coupling gadopentetate dimeglumine gadolinium to a […] like bovine serum albumin can reveal information about the necrotic (non-perfused) and non-necrotic (perfused) tumor volumes, and the percentage of vascular blood volume relative to the perfused tumor volume (known as the fractional blood volume [fBV]). Use of a […] tracer, gadopentetate dimeglumine, can reveal information regarding the volume transfer coefficient (K^trans), a variable that represents a combination of vascular permeability, vascular surface area, and blood flow.
Before each DCE-MRI scan, mice were injected intravenously with gadolinium-containing contrast dyes (bovine serum albumin-gadopentetate dimeglumine conjugate at ˜0.03 mmol/kg followed by gadopentetate dimeglumine at ˜0.2 mmol/kg). Baseline DCE-MRI measurements were taken on Day −1, test Compounds were administered on Day 0 through Day 5, and additional DCE-MRI measurements were taken on Days 1, 3, and 5. Image analyses were conducted with customized software. Total tumor volumes were measured by semi-automatically segmenting a region of interest around an anatomical image of the tumor. Tumor volumes of necrotic and non-necrotic tissues were measured by applying the same semi-automated segmentation process to a contrast dyed image. fBV and K^trans were computed using a standard Kety PK model.

[1] = tested on: VEGF189 and VEGF206 isoforms; experiment: In-Cell Western / Western blot of matrix associated VEGF189/206 production in HT1080 cells; format: cell-based, human; conditions: HT1080, normoxic, 48 hours
Method: Experimental Design. HT1080 (human fibrosacoma) cell cultures were established under normoxic conditions (21% oxygen). HT1080 cells constitutively overproduce VEGF even under normoxic conditions. […] At the completion of treatment, the cells were washed and harvested. Cells were incubated with a primary antibody that recognizes the VEGF189 and VEGF206 isoforms. Infrared-dye labeled antibodies were applied secondarily, and the amounts of VEGF189 and VEGF206 were determined using the IN-CELL WESTERN® assay and ODYSSEY® infrared imaging system (Li-Cor, Lincoln, Nebr., USA); results are expressed as percentage inhibition relative to vehicle treated controls. Conventional Western blotting using the same primary antibody was also performed to confirm the presence of the matrix associated isoforms; for these experiments actin was used as a loading control. Actin is a ubiquitous housekeeping protein that is not known to be post transcriptionally regulated.

[2] = ECG and blood pressure assessments in 7-day and 28-day GLP toxicity studies
[3] = Single-dose oral toxicity study in rats; format: in vivo
Method: A battery of genotoxicity studies was also performed. […] The L23 vehicle was used.
Because maximal exposure occurred at 100 mg/kg, this dose is considered the NOAEL for 1 day of dosing.

[4] = Oral toxicokinetics in dogs; format: in vivo, beagle dogs
Method: The pharmacokinetic evaluations in mice were adjuncts to the primary pharmacodynamic xenograft studies. The evaluations in rats included toxicokinetic assessments in single-dose, 7-day, and 28-day toxicology studies as well as a mass-balance study after a single oral dose of ^14C-Compound #10. The evaluations in dogs included toxicokinetic assessments in 7-day and 28-day toxicology studies. In the studies performed, rodents were dosed once daily with Compound #10 formulated in vehicle and administered via oral gavage.

[5] = Phase 1 multiple-dose study in healthy volunteers: pharmacokinetics (Table 28); format: in vivo, human; conditions: for concentration at 24 h / Tmax: human, plasma, oral; for concentration at 24 h: read-out: C24 h
Method: Methods. The trial was a Phase 1, randomized, escalating multiple dose, single center study conducted in 2 stages.
Capsules contained 2 mg or 20 mg of active substance.
Capsules contained 20 mg or 25 mg of active substance.
Noncompartmental methods were used to compute Tmax, Cmax, and AUC. Dose proportionality and sex effect were evaluated using ANOVA on log transformed PK parameters using dose, sex, and dose by sex as fixed factors.

HT1080 xenografts = experiment: HT1080 xenograft selectivity studies: tumor size; format: in vivo, athymic nude mice
Method: In all of these experiments, HT1080 cells (5×10^6 cells/mouse) were implanted subcutaneously in male athymic nude mice. When tumors had become established, mice were divided into groups (10 mice/group). […] Tumor size was measured by calipers at the beginning and end of treatment. At the completion of Compound administration, the mice were sacrificed, and excised tumors were assayed by ELISA for intratumoral VEGF or other angiogenic factors using methods analogous to those described in Section 9.1.1.1.

[6] = Stage 1, 0.3 mg/kg BID, Day 1, mean
[7] = Stage 1, 0.3 mg/kg BID, Day 7, mean
[8] = Stage 1, 0.6 mg/kg BID, Day 1, mean
[9] = Stage 1, 0.6 mg/kg BID, Day 7, mean
[10] = healthy volunteers, all dose levels

COc1ccc(C2c3[nH]c4ccc(Cl)cc4c3CCN2C(=O)Oc2ccc(Cl)cc2)cc1 (racemic) [Compound #10]
Change in mean tumor fBV in non-necrotic tissue (MDA MB 468 xenografts; Day 1 to Day 5): declined after Day 3
Change in mean K^trans in non-necrotic tissue (MDA MB 468 xenografts; Day −1 to Day 5): decreased
Change in mean necrotic tumor volume (MDA MB 468 xenografts; Day −1 to Day 5): rapidly increased
Change in mean non-necrotic tumor volume (MDA MB 468 xenografts; Day −1 to Day 5): decreased
Change in mean total tumor volume (MDA MB 468 xenografts; Day −1 to Day 5): little mean change
Inhibition of VEGF189 and VEGF206 isoforms [1]: potent concentration-dependent inhibition
QTc values vs controls ([2]; males, 60 mg/kg/day, 28-day study): comparable to controls
Increase in mean uncorrected QT value vs controls ([2]; males, 60 mg/kg/day, end of 28-day dosing): 7%
Toxicological effects on ECG or blood pressure ([2]; through 120 mg/kg/day for 7-days and through 60 mg/kg/day for 28-days): did not have any toxicological effects
Dose of maximal exposure ([3]; Sprague Dawley, rat, in vivo, po, 1 day): 100 mg/kg
NOAEL at 1 day ([3]; Sprague Dawley, rat, in vivo, rats, single oral gavage, read-out: NOAEL for 1 day of dosing): 100 mg/kg
Clinical or clinical pathological toxicities ([3]; rats, single oral 100, 200, or 400 mg/kg): no notable clinical or clinical pathological toxicities
Oral bioavailability [4]: orally bioavailable
AUC0-24 [5, 6]: 4310 ng·h/mL
Cmax (after PM dose) [5, 6]: 480 ng/mL
Dose-normalized AUC0-24 [5, 6]: 7.2 µg·h/mL/mg/kg
Dose-normalized Cmax [5, 6]: 0.79 µg/mL/mg/kg
Tmax (after PM dose) [5, 6]: 3.16 h
AUC0-24 [5, 7]: 8440 ng·h/mL
Cmax (after PM dose) [5, 7]: 590 ng/mL
Dose-normalized AUC0-24 [5, 7]: 14.1 µg·h/mL/mg/kg
Dose-normalized Cmax [5, 7]: 0.99 µg/mL/mg/kg
AUC0-24 [5, 8]: 10100 ng·h/mL
Cmax (after PM dose) [5, 8]: 970 ng/mL
Dose-normalized AUC0-24 [5, 8]: 8.4 µg·h/mL/mg/kg
Dose-normalized Cmax [5, 8]: 0.81 µg/mL/mg/kg
Tmax (after PM dose) [5, 8]: 3.17 h
AUC0-24 [5, 9]: 18600 ng·h/mL
Cmax (after PM dose) [5, 9]: 1160 ng/mL
Dose-normalized AUC0-24 [5, 9]: 15.5 µg·h/mL/mg/kg
Dose-normalized Cmax [5, 9]: 0.97 µg/mL/mg/kg
Dose-normalized AUC0-24 ([5]; Stage 1, […] BID, Day 1, mean): 7.5 µg·h/mL/mg/kg
Dose-normalized Cmax ([5]; Stage 1, […] BID, Day 1, mean): 0.82 µg/mL/mg/kg
Cmax (after PM dose) ([5]; Stage 1, […] BID, Day 7, mean): 2470 ng/mL
Dose-normalized AUC0-24 ([5]; Stage 1, […] BID, Day 7, mean): 13.7 µg·h/mL/mg/kg
Dose-normalized Cmax ([5]; Stage 1, […] BID, Day 7, mean): 1.03 µg/mL/mg/kg
Dose-normalized AUC0-24 ([5]; Stage 2, […] TID, Day 1, mean): 7.7 µg·h/mL/mg/kg
Dose-normalized Cmax ([5]; Stage 2, […] TID, Day 1, mean): 0.51 µg/mL/mg/kg
Tmax (after PM dose) ([5]; Stage 2, […] TID, Day 1, mean): 2.50 h
Cmax (after PM dose) ([5]; Stage 2, […] TID, Day 7, mean): 4650 ng/mL
Dose-normalized AUC0-24 ([5]; Stage 2, […] TID, Day 7, mean): 16.4 µg·h/mL/mg/kg
Dose-normalized Cmax ([5]; Stage 2, […] TID, Day 7, mean): 0.98 µg/mL/mg/kg
concentration at 24 h ([5]; both sexes, 0.3 mg/kg, Stage 1, 0.3 mg/kg BID, Day 1, mean): 94 ng/mL
concentration at 24 h ([5]; both sexes, 0.3 mg/kg, Stage 1, 0.3 mg/kg BID, Day 7, mean): 210 ng/mL
concentration at 24 h ([5]; both sexes, 0.6 mg/kg, Stage 1, 0.6 mg/kg BID, Day 1, mean): 260 ng/mL
concentration at 24 h ([5]; both sexes, 0.6 mg/kg, Stage 1, 0.6 mg/kg BID, Day 7, mean): 540 ng/mL
Tmax ([5]; both sexes, healthy volunteers, Stage 1 and Stage 2, read-out: Mean Tmax): ~3 h
Tmax ([5]; both, Stage 1, 1.2 mg/kg BID, Day 1, mean, read-out: Tmax (after PM dose)): 3 h
Oral bioavailability ([5]; healthy volunteers): orally bioavailable
Differences in Cmax or AUC0-24 between males and females ([5]; healthy volunteers, ANOVA): no significant differences
Accumulation (Day 1 to Day 7) when dosed continuously [5, 10]: ~2 fold
Target trough plasma concentration (~0.1 to […]) [5, 10]: achieved and maintained
Lag time until appearance in plasma ([5]; healthy volunteers, oral capsules): ~30 min
Final mean Compound #10-treated tumor size (HT1080 xenografts; Study 1: 1 mg/kg oral BID, 28 days): 450 mm^3
Final mean Compound #10-treated tumor size (HT1080 xenografts; Study 2: 5 mg/kg oral BID, 7 days): 595 mm^3
Final mean Compound #10-treated tumor size (HT1080 xenografts; Study 3: 5 mg/kg oral BID, 10 days): 735 mm^3
Final mean Compound #10-treated tumor size (HT1080 xenografts; Study 4: 5 mg/kg oral BID, 9 days): 953 mm^3
Final mean Compound #10-treated tumor size (HT1080 xenografts; Study 5: 5/50 mg/kg oral BID, 15 days): 1922 mm^3
Final mean Compound #10-treated tumor size (HT1080 xenografts; Study 6: 5 mg/kg oral QD, 21 days): 750 mm^3
Final mean Compound #10-treated tumor size (HT1080 xenografts; Study 7: 10 mg/kg oral QD, 42 days): 1770 mm^3
